Assay results from ChEMBL document CHEMBL5500407, “Designing Chromane Derivatives as α2A-Adrenoceptor Selective Agonists via Conformation Constraint” (J Med Chem, 2024).

What was measured:
[1] = target: T1, Alpha-2A adrenergic receptor (Homo sapiens, UniProt P08913)
T1 sequence (P08913 whole entry): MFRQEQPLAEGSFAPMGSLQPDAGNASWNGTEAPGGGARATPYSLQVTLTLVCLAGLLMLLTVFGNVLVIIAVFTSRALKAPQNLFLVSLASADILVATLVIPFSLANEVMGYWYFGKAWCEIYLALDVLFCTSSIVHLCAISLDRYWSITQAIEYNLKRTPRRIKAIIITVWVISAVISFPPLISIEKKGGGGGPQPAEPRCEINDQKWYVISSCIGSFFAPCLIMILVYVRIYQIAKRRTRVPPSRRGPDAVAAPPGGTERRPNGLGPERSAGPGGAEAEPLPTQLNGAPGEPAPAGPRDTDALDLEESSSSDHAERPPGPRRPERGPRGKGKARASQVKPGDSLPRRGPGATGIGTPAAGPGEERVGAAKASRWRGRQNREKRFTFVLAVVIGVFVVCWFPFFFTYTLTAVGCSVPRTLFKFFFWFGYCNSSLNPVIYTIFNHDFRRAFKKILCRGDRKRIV
Description: Agonist activity at alpha2A-adrenoceptor (unknown origin) expressed in CHO-alpha2-AR-PKAcatEGFP cells assessed as intracellular cAMP concentration by measuring PKA translocation after 15 mins incubation by PKA redistribution assay

[2] = target: T2, Alpha-1D adrenergic receptor (Homo sapiens, UniProt P25100); experiment: Binding affinity to human alpha1D-adrenoceptor
T2 sequence (P25100 whole entry): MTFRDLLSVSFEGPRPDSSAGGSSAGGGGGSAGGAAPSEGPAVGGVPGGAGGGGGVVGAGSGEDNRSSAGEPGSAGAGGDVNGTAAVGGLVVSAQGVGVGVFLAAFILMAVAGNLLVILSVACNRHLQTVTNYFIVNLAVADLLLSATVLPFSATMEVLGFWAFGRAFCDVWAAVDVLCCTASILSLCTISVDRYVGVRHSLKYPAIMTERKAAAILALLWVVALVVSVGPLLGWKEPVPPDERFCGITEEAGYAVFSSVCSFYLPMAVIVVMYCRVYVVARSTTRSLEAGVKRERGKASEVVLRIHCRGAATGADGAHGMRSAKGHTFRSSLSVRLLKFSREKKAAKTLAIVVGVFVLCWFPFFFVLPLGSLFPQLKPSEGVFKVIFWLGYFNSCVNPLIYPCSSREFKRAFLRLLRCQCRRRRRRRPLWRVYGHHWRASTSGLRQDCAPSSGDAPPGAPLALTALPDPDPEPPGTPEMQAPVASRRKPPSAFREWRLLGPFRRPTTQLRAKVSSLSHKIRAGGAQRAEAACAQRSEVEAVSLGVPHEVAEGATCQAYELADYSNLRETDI

[3] = target: T1, Alpha-2A adrenergic receptor; remark: listed apart in the source
Description: Binding affinity to human alpha2A-adrenoceptor

[4] = target: T3, Alpha-1A adrenergic receptor (Homo sapiens, UniProt P35348)
T3 sequence (P35348 whole entry): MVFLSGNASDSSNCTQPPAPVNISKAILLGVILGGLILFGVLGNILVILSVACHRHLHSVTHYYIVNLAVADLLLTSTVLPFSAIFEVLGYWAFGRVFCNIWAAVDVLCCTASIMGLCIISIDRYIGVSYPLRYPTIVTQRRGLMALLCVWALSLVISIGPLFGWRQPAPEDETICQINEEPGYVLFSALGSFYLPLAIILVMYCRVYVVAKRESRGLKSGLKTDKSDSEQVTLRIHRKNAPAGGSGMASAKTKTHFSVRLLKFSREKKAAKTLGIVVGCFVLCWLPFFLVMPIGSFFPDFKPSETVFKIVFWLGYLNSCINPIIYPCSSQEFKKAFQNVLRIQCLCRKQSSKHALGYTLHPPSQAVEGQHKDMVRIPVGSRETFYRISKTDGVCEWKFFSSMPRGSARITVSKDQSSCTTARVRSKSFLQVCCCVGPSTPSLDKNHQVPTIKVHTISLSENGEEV
Description: Binding affinity to human alpha1A-adrenoceptor

[5] = target: T4, Alpha-2B adrenergic receptor (Homo sapiens, UniProt P18089)
T4 sequence (P18089 whole entry): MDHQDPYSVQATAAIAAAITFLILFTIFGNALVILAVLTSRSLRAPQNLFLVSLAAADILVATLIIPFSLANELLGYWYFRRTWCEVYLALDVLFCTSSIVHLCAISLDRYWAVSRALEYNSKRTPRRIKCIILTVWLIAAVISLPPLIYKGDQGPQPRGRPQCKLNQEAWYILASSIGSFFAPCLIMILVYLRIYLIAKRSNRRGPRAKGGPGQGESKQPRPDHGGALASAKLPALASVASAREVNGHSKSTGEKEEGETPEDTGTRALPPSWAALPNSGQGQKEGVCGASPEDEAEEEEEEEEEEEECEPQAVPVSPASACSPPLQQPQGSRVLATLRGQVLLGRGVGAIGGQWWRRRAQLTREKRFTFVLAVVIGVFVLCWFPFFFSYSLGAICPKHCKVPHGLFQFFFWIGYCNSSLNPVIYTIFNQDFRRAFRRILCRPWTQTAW
Description: Binding affinity to human alpha2B-adrenoceptor

[6] = target: T5, Alpha-1B adrenergic receptor (Homo sapiens, UniProt P35368); experiment: Binding affinity to human alpha1B-adrenoceptor
T5 sequence (P35368 whole entry): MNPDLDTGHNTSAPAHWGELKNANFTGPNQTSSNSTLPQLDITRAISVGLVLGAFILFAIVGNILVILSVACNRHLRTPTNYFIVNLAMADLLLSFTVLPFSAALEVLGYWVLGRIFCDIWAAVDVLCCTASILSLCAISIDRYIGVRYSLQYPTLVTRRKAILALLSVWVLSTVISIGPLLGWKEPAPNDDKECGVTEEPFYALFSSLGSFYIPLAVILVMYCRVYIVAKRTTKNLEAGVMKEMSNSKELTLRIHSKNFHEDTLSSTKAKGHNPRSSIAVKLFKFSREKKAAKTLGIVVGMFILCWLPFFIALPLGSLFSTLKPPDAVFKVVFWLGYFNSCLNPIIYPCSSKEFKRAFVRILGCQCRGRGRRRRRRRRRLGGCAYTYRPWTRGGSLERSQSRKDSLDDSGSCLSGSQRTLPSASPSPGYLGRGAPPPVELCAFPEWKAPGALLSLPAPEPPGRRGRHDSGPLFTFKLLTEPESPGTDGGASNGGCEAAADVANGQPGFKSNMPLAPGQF

[7] = target: T6, Alpha-2C adrenergic receptor (Homo sapiens, UniProt P18825)
T6 sequence (P18825 whole entry): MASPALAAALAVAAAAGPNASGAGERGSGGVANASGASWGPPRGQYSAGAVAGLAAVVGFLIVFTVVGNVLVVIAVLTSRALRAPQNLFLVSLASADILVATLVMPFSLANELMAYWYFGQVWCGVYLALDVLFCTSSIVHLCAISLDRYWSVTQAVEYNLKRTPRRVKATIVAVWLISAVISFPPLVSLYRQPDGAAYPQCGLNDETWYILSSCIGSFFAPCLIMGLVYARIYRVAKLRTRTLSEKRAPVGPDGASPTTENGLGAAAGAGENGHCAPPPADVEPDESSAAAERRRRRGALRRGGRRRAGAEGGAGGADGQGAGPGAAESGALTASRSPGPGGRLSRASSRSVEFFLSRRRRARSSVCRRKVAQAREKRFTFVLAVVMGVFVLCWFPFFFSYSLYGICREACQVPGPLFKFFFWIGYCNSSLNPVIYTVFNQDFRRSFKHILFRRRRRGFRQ
Description: Binding affinity to human alpha2C-adrenoceptor

[8] = Selectivity index, ratio of EC50 for alpha2A-adrenoceptor (unknown origin) to EC50 for alpha2C-adrenoceptor (unknown origin)
[9] = Selectivity index, ratio of EC50 for alpha2A-adrenoceptor (unknown origin) to EC50 for alpha1A-adrenoceptor (unknown origin)
[10] = Metabolic stability in mouse liver microsomes assessed as elimination half life; assay type: ADME, Microsome
[11] = target: T6, Alpha-2C adrenergic receptor; experiment: Agonist activity at alpha2C-adrenoceptor (unknown origin) expressed in CHO-alpha2C-PKAcatEGFP cells assessed as increase in intracellular calcium level measured after 15 mins incubation by Micro automated microscopy; assay type: functional, cell-based
[12] = target: T4, Alpha-2B adrenergic receptor; experiment: Agonist activity at alpha2B-adrenoceptor (unknown origin) expressed in U2OS-EGFP-NFAT2-alpha2B-AR cells assessed as increase in intracellular calcium level measured after 15 mins incubation by Micro automated microscopy; assay type: functional, cell-based
[13] = target: T3, Alpha-1A adrenergic receptor; experiment: Agonist activity at alpha1A-adrenoceptor (unknown origin) expressed in HEK293T cells assessed as fluorescence intensity measured after 30 mins by IP-one homogeneous time-resolved fluorescence assay; assay type: functional, cell-based
[14] = Selectivity index, ratio of EC50 for alpha2A-adrenoceptor (unknown origin) to EC50 for alpha2B-adrenoceptor (unknown origin)
[15] = Metabolic stability in mouse liver microsomes assessed as intrinsic clearance; assay type: ADME, Microsome; details: read-out: CLH

For `Clc1cc(Br)cc2c1OCC=C2c1c[nH]cn1`, the EC50 [1] was greater than 5000 nM.
`Cc1ccc2c(c1)C(c1c[nH]cn1)CCO2` (centres undefined) gave an EC50 [1] of 2030 nM.
`Fc1ccc2c(c1)OCC=C2c1cnc[nH]1` showed an EC50 [1] greater than 5000 nM.
Work on `COc1cccc2c1CCOC2C1=NCCN1` (centres undefined) [TASIPIMIDINE] yielded a Ki [2] of 3090 nM, a Ki [3] of 8.71 nM and a Ki [4] of 3090 nM. It also gave a Ki [5] greater than 1000 nM, a Ki [6] of 525 nM and a Ki [7] greater than 1000 nM.
Work on `Cc1ccc2c(c1Br)OCC=C2c1c[nH]cn1` yielded an EC50 [1] of 104 nM.
Compound `N=C(N)NC(=O)Cc1c(Cl)cccc1Cl` [GUANFACINE] has a Ki [2] of 11700 nM, a Ki [4] of 4680 nM and a Ki [6] of 135000 nM.
Work on `COc1ccc2c(c1)C(c1c[nH]cn1)=CCO2` yielded an EC50 [1] greater than 5000 nM.
In the case of `Cc1[nH]cnc1C1=CCOc2c(Cl)cccc21`, the EC50 [1] is reported as greater than 5000 nM.
`Clc1cccc2c(Nc3ccncc3)cccc12` showed a Ki [3] of 8.32 nM.
`Cc1ccc2c(c1)C(c1c[nH]cn1)=CCO2` showed an EC50 [1] of 896 nM.
`Brc1ccc2c(c1)OCCC2c1c[nH]cn1` (centres undefined) gave an EC50 [1] of 165 nM.
In the case of `Cc1cccc2c1OCCC2c1c[nH]cn1` (centres undefined), the Selectivity Index [8] is reported as greater than 2000, the Selectivity Index [9] is reported as 1.2 and the half-life [10] is reported as 36.8 min. The EC50 [11] was greater than 5000 nM, the EC50 [12] was 45.8 nM and the EC50 [13] was 2.42 nM. For the same compound, the Selectivity Index [14] was 22, the microsomal CLint [15] was 37.7 µL/min/mg and the EC50 [1] was 2.09 nM.
`Clc1cc(Cl)c2c(c1)C(c1c[nH]cn1)=CCO2` gave an EC50 [1] of 4630 nM.
For `C[C@H](c1c[nH]cn1)c1cccc2ccccc12`, the Ki [3] was 15.5 nM, the Ki [4] was 447 nM and the Ki [5] was 35.5 nM. The Ki [7] was 17.8 nM.
In the case of `C1=C(c2ccc3c(c2)CC3)CNCC1`, the Ki [5] is reported as 60.3 nM.
Compound `Clc1ccc2c(c1)C(c1cnc[nH]1)=CCO2` has an EC50 [1] of 899 nM.
